According to ChEMBL document CHEMBL4321812, “Structure-based rational design of staurosporine-based fluorescent probe with broad-ranging kinase affinity for kinase panel application” (Bioorg Med Chem Lett, 2019):

How the values were obtained:
[1] = target: Serine/threonine-protein kinase 25 (Homo sapiens, UniProt O00506); experiment: Binding affinity to recombinant full-length N-terminal His-FLAG-GST-tagged STK25 (unknown origin) expressed in baculovirus infected Sf9 insect cells incubated for 1 hr by TR-FRET assay
[2] = target: Serine/threonine-protein kinase Sgk2 (Homo sapiens, UniProt Q9HBY8); experiment: Binding affinity to recombinant full-length N-terminal His-FLAG-tagged SGK2 (unknown origin) expressed in baculovirus infected Sf9 insect cells incubated for 1 hr by TR-FRET assay
[3] = target: Proto-oncogene tyrosine-protein kinase receptor Ret (Homo sapiens, UniProt P07949); experiment: Binding affinity to recombinant N-terminal His-FLAG-GST-tagged RET (unknown origin) (658 to 1114 residues) expressed in baculovirus infected Sf9 insect cells incubated for 1 hr by TR-FRET assay
[4] = target: Serine/threonine-protein kinase 32C (Homo sapiens, UniProt Q86UX6); experiment: Binding affinity to recombinant full-length N-terminal His-FLAG-GST-tagged STK32C (unknown origin) (66 to 486 residues) expressed in baculovirus infected Sf9 insect cells incubated for 1 hr by TR-FRET assay
[5] = target: Dual specificity mitogen-activated protein kinase kinase 6 (Homo sapiens, UniProt P52564); experiment: Binding affinity to recombinant human full length N-terminal GST-tagged MAP2K6 expressed in baculovirus expression system using p38alpha (9 to 352 residues) as substrate incubated for 1 hr by TR-FRET assay
[6] = target: Serine/threonine-protein kinase 24 (Homo sapiens, UniProt Q9Y6E0); experiment: Binding affinity to recombinant full-length N-terminal His-FLAG-tagged STK24 (unknown origin) expressed in baculovirus infected Sf9 insect cells incubated for 1 hr by TR-FRET assay
[7] = target: Serine/threonine-protein kinase Sgk1 (Homo sapiens, UniProt O00141); experiment: Binding affinity to recombinant full-length N-terminal His-FLAG-GST-tagged SGK1 (unknown origin) (60 to 431 residues) expressed in baculovirus infected Sf9 insect cells incubated for 1 hr by TR-FRET assay
[8] = target: Ephrin type-A receptor 7 (Homo sapiens, UniProt Q15375); experiment: Binding affinity to recombinant N-terminal His-FLAG-GST-tagged EPHA7 (unknown origin) ( 595 to 998 residues) expressed in baculovirus infected Sf9 insect cells incubated for 1 hr by TR-FRET assay
[9] = target: Serine/threonine-protein kinase ULK1 (Homo sapiens, UniProt O75385); experiment: Binding affinity to recombinant N-terminal His-FLAG-GST-tagged ULK1 (unknown origin) (1 to 649 residues) expressed in baculovirus infected Sf9 insect cells incubated for 1 hr by TR-FRET assay
[10] = target: Interleukin-1 receptor-associated kinase 1 (Homo sapiens, UniProt P51617); experiment: Binding affinity to recombinant N-terminal His-FLAG-GST-tagged IRAK1 (unknown origin) (194 to 712 residues) expressed in baculovirus infected Sf9 insect cells incubated for 1 hr by TR-FRET assay
[11] = target: Serine/threonine-protein kinase 3 (Homo sapiens, UniProt Q13188); experiment: Binding affinity to recombinant full-length N-terminal His-FLAG-GST-tagged STK3 (unknown origin) expressed in baculovirus infected Sf9 insect cells incubated for 1 hr by TR-FRET assay
[12] = target: Tyrosine-protein kinase receptor TYRO3 (Homo sapiens, UniProt Q06418); experiment: Binding affinity to recombinant full-length N-terminal His-FLAG-GST-tagged TYRO3 (unknown origin) expressed in baculovirus infected Sf9 insect cells incubated for 1 hr by TR-FRET assay
[13] = target: Serine/threonine-protein kinase Sgk3 (Homo sapiens, UniProt Q96BR1); experiment: Binding affinity to recombinant full-length N-terminal His-FLAG-GST-tagged SGK3 (unknown origin) (119 to 496 residues) expressed in baculovirus infected Sf9 insect cells incubated for 1 hr by TR-FRET assay
[14] = target: Tyrosine-protein kinase SYK (Homo sapiens, UniProt P43405); experiment: Binding affinity to recombinant human full-length N-terminal GST-tagged SYK expressed in baculovirus expression system using Blk/Lyntide as substrate incubated for 1 hr by TR-FRET assay
[15] = target: Mitogen-activated protein kinase kinase kinase kinase 5 (Homo sapiens, UniProt Q9Y4K4); experiment: Binding affinity to recombinant full-length N-terminal His-FLAG-GST-tagged MAP4K5 (unknown origin) expressed in baculovirus infected Sf9 insect cells incubated for 1 hr by TR-FRET assay
[16] = target: cAMP-dependent protein kinase catalytic subunit alpha (Homo sapiens, UniProt P17612); experiment: Binding affinity to recombinant human full length N-terminal GST-tagged PRKACA expressed in baculovirus expression system using kemptide as substrate incubated for 1 hr by TR-FRET assay
[17] = target: High affinity nerve growth factor receptor (Homo sapiens, UniProt P04629); experiment: Binding affinity to recombinant full-length N-terminal His-FLAG-GST-tagged NTRK1 (unknown origin) (436 to 790 residues) expressed in baculovirus infected Sf9 insect cells incubated for 1 hr by TR-FRET assay
[18] = target: Phosphorylase b kinase gamma catalytic chain, liver/testis isoform (Homo sapiens, UniProt P15735); experiment: Binding affinity to recombinant full-length N-terminal His-FLAG-GST-tagged PHKG2 (unknown origin) expressed in baculovirus infected Sf9 insect cells incubated for 1 hr by TR-FRET assay
[19] = target: Tyrosine-protein kinase Blk (Homo sapiens, UniProt P51451); experiment: Binding affinity to recombinant human full length N-terminal GST-tagged BLK expressed in baculovirus expression system using srctide as substrate incubated for 1 hr by TR-FRET assay
[20] = target: Ribosomal protein S6 kinase alpha-6 (Homo sapiens, UniProt Q9UK32); experiment: Binding affinity to recombinant full-length N-terminal His-FLAG-tagged RPS6KA6 (unknown origin) expressed in baculovirus infected Sf9 insect cells incubated for 1 hr by TR-FRET assay
[21] = target: Non-receptor tyrosine-protein kinase TNK1 (Homo sapiens, UniProt Q13470); experiment: Binding affinity to recombinant human N-terminal GST-tagged TNK1 (106 to 390 residues) expressed in baculovirus expression system using CSKtide as substrate incubated for 1 hr by TR-FRET assay
[22] = target: Interleukin-1 receptor-associated kinase 4 (Homo sapiens, UniProt Q9NWZ3); experiment: Binding affinity to recombinant full-length human N-terminal his-tagged IRAK4 expressed in baculovirus expression system using IRAK1 peptide as substrate incubated for 1 hr by TR-FRET assay
[23] = target: CDK9/cyclin T1 (Homo sapiens, UniProt P50750); experiment: Binding affinity to recombinant human full length N-terminal GST-tagged CDK9 co-expressed with full length N-terminal His-tagged CyclinT1 expressed in baculovirus expression system using CDK9 substrate incubated for 1 hr by TR-FRET assay
[24] = target: Angiopoietin-1 receptor (Homo sapiens, UniProt Q02763); experiment: Binding affinity to recombinant full-length N-terminal His-FLAG-GST-tagged TEK (unknown origin) (771 to 1124 residues) expressed in baculovirus infected Sf9 insect cells incubated for 1 hr by TR-FRET assay

Ephrin type-A receptor 7, sequence (Q15375 whole entry, the tested form may be a part): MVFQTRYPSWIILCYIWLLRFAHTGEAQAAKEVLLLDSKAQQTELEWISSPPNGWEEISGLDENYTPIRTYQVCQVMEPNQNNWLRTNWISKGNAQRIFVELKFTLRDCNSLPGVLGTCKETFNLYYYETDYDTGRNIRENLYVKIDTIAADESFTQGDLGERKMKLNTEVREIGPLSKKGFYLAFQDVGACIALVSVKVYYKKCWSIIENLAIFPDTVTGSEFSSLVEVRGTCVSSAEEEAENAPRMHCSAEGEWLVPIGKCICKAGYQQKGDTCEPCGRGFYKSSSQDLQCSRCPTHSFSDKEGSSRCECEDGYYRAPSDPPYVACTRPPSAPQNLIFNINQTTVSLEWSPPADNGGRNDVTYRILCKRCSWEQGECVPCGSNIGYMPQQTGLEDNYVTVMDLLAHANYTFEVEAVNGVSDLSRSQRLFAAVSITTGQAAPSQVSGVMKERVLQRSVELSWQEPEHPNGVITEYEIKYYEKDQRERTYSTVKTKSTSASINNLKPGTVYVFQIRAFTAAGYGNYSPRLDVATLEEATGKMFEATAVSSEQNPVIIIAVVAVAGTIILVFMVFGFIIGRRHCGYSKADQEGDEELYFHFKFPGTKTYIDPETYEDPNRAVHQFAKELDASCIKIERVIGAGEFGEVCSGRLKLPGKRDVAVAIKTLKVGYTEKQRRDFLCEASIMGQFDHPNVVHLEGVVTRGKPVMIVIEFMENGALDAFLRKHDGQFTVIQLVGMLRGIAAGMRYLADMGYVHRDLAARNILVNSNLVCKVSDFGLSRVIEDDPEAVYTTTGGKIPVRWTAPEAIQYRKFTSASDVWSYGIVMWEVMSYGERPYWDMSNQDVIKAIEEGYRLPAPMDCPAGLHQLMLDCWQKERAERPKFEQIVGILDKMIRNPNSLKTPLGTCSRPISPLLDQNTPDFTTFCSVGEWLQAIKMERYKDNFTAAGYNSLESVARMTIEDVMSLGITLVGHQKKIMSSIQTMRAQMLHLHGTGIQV
Interleukin-1 receptor-associated kinase 1, sequence (P51617 whole entry, the tested form may be a part): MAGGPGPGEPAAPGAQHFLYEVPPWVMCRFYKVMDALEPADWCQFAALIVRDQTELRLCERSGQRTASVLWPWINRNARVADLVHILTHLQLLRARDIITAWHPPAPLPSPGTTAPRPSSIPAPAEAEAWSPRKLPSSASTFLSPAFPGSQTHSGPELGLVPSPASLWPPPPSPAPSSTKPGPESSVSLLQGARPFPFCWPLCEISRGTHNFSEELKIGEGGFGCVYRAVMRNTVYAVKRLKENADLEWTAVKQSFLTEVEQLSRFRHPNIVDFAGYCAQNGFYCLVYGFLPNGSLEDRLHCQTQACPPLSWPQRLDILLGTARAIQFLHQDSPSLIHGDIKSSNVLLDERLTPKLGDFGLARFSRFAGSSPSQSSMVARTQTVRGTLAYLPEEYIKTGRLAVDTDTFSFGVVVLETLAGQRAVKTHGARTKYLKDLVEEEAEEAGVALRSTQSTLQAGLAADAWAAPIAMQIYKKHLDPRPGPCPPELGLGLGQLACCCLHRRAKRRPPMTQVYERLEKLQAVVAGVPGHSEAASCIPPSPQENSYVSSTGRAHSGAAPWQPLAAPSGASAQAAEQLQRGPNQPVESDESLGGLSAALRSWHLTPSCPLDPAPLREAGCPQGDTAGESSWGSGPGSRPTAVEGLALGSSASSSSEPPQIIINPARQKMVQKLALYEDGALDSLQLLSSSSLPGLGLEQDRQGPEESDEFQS
High affinity nerve growth factor receptor, sequence (P04629 whole entry, the tested form may be a part, canonical isoform): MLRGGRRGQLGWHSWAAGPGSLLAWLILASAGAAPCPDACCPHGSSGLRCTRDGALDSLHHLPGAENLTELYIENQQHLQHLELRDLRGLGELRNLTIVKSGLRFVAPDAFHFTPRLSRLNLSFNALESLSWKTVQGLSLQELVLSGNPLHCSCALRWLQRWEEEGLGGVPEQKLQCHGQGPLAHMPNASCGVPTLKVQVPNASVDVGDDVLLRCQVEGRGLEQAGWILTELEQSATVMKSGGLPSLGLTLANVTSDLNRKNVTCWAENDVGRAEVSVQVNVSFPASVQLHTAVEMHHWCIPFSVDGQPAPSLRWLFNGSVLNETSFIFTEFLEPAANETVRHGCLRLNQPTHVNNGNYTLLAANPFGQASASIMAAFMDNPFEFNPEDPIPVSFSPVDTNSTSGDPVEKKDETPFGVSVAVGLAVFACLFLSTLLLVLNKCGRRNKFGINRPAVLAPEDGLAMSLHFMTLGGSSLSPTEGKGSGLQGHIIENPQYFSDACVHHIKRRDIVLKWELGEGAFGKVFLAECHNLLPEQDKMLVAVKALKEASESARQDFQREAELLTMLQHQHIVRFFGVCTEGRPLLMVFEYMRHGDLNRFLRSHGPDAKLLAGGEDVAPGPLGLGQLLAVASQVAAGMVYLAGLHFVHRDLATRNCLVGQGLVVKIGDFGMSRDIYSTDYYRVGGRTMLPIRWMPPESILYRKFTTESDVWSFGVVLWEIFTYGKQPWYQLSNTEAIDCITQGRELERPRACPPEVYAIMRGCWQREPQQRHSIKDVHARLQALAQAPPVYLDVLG
Serine/threonine-protein kinase ULK1, sequence (O75385 whole entry, the tested form may be a part): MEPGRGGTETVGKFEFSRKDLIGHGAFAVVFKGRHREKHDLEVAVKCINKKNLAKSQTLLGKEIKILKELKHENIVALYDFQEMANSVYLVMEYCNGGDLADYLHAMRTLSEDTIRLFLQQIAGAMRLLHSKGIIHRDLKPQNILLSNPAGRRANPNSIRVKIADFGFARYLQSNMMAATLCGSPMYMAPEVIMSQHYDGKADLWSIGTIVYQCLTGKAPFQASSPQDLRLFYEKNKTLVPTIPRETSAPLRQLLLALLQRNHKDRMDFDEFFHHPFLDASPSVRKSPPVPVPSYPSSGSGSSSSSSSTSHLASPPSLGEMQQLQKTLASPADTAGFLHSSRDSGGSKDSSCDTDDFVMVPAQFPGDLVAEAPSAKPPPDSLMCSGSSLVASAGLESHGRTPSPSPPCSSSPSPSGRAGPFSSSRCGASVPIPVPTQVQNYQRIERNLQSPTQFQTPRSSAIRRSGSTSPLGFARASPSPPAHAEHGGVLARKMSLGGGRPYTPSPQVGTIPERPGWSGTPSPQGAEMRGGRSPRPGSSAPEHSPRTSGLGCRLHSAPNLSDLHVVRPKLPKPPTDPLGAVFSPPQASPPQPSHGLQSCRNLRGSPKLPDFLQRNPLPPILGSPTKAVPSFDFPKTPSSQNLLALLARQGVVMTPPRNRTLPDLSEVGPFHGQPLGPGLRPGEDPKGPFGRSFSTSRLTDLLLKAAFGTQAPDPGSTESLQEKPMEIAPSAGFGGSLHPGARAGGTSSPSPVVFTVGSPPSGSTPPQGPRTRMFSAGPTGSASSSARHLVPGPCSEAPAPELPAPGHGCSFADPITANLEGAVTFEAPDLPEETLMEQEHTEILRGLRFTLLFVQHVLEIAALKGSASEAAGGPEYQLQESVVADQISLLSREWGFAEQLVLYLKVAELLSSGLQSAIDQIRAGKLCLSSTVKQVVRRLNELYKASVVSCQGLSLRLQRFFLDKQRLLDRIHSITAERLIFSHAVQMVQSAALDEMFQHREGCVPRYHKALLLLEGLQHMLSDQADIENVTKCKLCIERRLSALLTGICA
Proto-oncogene tyrosine-protein kinase receptor Ret, sequence (P07949 whole entry, the tested form may be a part): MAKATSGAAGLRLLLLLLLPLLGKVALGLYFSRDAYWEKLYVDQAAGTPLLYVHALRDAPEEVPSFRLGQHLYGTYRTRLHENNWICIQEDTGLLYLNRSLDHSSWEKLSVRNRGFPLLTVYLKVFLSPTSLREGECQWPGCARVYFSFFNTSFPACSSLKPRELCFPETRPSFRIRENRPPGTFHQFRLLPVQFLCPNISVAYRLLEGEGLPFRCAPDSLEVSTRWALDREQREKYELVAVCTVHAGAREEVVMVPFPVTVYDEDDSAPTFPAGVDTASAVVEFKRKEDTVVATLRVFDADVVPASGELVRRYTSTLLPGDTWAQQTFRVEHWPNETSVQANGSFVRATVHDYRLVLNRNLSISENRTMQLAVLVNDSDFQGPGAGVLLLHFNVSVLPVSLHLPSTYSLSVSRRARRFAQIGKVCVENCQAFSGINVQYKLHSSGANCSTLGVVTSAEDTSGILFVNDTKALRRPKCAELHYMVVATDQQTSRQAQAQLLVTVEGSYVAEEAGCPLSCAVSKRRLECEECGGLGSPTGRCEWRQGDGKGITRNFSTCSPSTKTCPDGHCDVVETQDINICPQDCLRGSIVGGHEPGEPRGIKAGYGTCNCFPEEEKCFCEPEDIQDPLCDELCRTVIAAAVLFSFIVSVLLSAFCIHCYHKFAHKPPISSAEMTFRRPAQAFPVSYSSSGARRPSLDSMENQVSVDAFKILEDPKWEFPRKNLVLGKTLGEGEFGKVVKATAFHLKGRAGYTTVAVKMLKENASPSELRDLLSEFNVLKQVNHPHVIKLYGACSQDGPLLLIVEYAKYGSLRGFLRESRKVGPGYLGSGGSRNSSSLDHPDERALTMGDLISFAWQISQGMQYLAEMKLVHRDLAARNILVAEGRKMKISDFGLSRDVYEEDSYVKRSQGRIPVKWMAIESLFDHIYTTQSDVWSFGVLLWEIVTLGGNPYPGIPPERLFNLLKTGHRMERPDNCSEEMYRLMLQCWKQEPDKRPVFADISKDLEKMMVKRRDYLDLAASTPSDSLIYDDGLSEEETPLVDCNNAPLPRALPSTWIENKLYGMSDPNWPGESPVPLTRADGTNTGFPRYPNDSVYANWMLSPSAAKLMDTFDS
Serine/threonine-protein kinase Sgk1, sequence (O00141 whole entry, the tested form may be a part): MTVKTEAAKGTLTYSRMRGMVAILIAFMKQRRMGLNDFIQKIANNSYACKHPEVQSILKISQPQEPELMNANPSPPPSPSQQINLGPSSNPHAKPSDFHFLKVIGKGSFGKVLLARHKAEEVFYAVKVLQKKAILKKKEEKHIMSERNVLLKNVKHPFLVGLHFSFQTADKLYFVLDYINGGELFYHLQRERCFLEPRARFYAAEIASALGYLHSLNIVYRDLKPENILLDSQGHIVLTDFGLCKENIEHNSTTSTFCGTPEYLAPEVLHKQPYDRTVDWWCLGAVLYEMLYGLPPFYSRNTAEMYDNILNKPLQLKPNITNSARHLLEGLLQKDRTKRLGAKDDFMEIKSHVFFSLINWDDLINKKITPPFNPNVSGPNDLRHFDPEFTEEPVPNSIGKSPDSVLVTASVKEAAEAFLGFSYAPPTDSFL

Compound	Kd [1]	Kd [2]	Kd [3]	Kd [4]	Kd [5]	Kd [6]	Kd [7]	Kd [8]	Kd [9]	Kd [10]	Kd [11]	Kd [12]	Kd [13]	Kd [14]	Kd [15]	Kd [16]	Kd [17]	Kd [18]	Kd [19]	Kd [20]	other results
CO[C@@H]1[C@H](NCCOCCOCCOCCNC(=O)CCC2=[N+]3C(=Cc4c(C)cc(C)n4[B-]3(F)F)C=C2)C[C@H]2O[C@]1(C)n1c3ccccc3c3c4c(c5c6ccccc6n2c5c31)C(=O)NC4	444 nM	1220 nM	40 nM	448 nM	28 nM	436 nM	331 nM	766 nM	135 nM	299 nM	6 nM	531 nM	322 nM	26 nM	87 nM	116 nM	35 nM	71 nM	63 nM	21 nM	Kd [21]: 4 nM; Kd [22]: 23 nM; Kd [23]: 162 nM; Kd [24]: 395 nM
CO[C@@H]1[C@H](N(C)CCOCCOCCOCCNC(=O)CCC2=[N+]3C(=Cc4c(C)cc(C)n4[B-]3(F)F)C=C2)C[C@H]2O[C@]1(C)n1c3ccccc3c3c4c(c5c6ccccc6n2c5c31)C(=O)NC4	443 nM	1770 nM	54 nM	326 nM	16 nM	767 nM	566 nM	887 nM	311 nM	609 nM	3 nM	1050 nM	338 nM	41 nM	377 nM	42 nM	25 nM	72 nM	45 nM	14 nM	Kd [21]: 13 nM; Kd [22]: 75 nM; Kd [23]: 116 nM; Kd [24]: 408 nM
